In publication PMC12096834, “Antimicrobial peptide plectasin recombinantly produced in Escherichia coli disintegrates cell walls of gram-positive bacteria, as proven by transmission electron and atomic force microscopy” (Journal of Bacteriology, 2025):

How the values were obtained:
Format in all cases: cell-based
[1] = test system: Escherichia coli DSM 1103 (ATCC 25922); assay: Antimicrobial activity assay (broth microdilution MIC); settings: MH broth, 35°C, 18 hours, absorbance 625 nm, three independent tests, plectasin 2–2,048 µg/mL, CASPON-plectasin 16–16,384 µg/mL
Text: The test panel included four gram-positive and four gram-negative bacterial strains, which were selected based on EUCAST recommendations and are commonly used in quality control for pathogen testing. Specifically, the test panel comprised the following four gram-positive strains: Staphylococcus aureus DSM 2569 (ATCC 29213), Streptococcus pneumoniae DSM 24048 (ATCC 49619), Listeria monocytogenes DSM 20600 (ATCC 15313), and Enterococcus faecalis DSM 2570 (ATCC 29212). The gram-negative strains included the following: Pseudomonas aeruginosa DSM 1117 (ATCC 27853), Escherichia coli DSM 1103 (ATCC 25922), Escherichia coli BL21(DE3) DSM 102052 (ATCC BAA-1025-B2), and Escherichia coli HMS174 DSM 5932 (ATCC 47011). These strains were obtained from the German Collection of Microorganisms and Cell Cultures GmbH (DSMZ, Leibnitz Institute, Braunschweig, Germany). The strains were maintained in cryo-stocks containing 20% glycerol at a temperature of −80°C. When needed, all gram-negative strains were streaked on MH-agar (Oxoid, Hampshire, UK) and all gram-positive strains on TSYE-agar, with the exception of the Listeria monocytogenes strain, for which BHI-agar was used. All strains were incubated overnight at 35°C.
The plates were made fresh on the day of the assay by first adding 50 µL of sterile water (for the gram-positive strains) or PBS buffer pH 7.4 (for the gram-negative strains) into the wells of the first to 11th column of a polystyrene 96-well plate (Greiner, 655161, Kremsmünster, Austria). An ampicillin stock solution (6,400 µg/mL) was prepared and diluted in sterile water to obtain a final ampicillin solution of 64 µg/mL. Purified plectasin, 100 µL of ampicillin solution, CASPON-plectasin, and sterile water for the negative control were each dispensed into two wells of the 12th microtiter plate column and diluted twofold from the 11th to the second column by transferring 50 µL per well of the previous column into the next one (in the end, 50 µL of the 2nd was discarded) to obtain the ranges of 0.064–64 µg/mL for ampicillin, 32–32,768 µg/mL for CASPON-plectasin, and 0.5–512 µg/mL (Streptococcus pneumoniae and Staphylococcus aureus), 1–1,024 µg/mL (Enterococcus faecalis and Listeria monocytogenes), or 4–4,096 µg/mL (gram-negative strains) for plectasin.
Bacterial inocula were prepared by suspending colonies from incubated plates described above with 3 mL 0.85% NaCl solution to obtain a turbidity corresponding to McFarland standard 0.5. The inoculated saline suspensions (1–2 × 10^8 CFU/mL) were diluted 1:100 in double concentrated MH- (all gram-negative strains, Staphylococcus aureus, and […]) or MHF- (Streptococcus pneumoniae, Listeria monocytogenes; MH-broth with 5% lysed horse blood and 20 mg/L ß-NAD) broth to obtain approximately […]. Fifty microliters of the diluted inoculum was added to the wells of the prepared microdilution plate, resulting in the final plectasin (0.25–256 µg/mL, 0.5–512 µg/mL, and 2–2,048 µg/mL), CASPON-plectasin (16–16,384 µg/mL), and ampicillin (0.032–32 µg/mL) concentrations and approximately […]. The wells of the negative control were inoculated with sterile double-concentrated MH- or MH-F broth. A schematic illustration of the plate preparation can be found in the supplementary material (Fig. S1). Plates were incubated in ambient air at 35°C for 18 hours. After incubation, the plates were shaken for 1 minute (1,000 rpm) on a platform shaker (Titramax 101, Heidolph, Schwabach, Germany) until obtaining a homogeneous suspension. The absorbances (625 nm) of each well were measured on a Tecan Spark device (Männedorf, Switzerland) and subtracted by the average absorbance of the negative control. […] The variability of the MIC results was evaluated by testing all strains against each agent in three independent assays. […]

Streptococcus pneumoniae = assay: TEM quantification of cells with visible damage
Method: (§1) Suspensions of gram-positive bacteria were prepared by taking bacterial colonies out of overnight grown agar plates and resuspending them in MHB. The suspension was set to an OD625 extinction of 0.15–0.20 corresponding to a bacterial cell density of approximately 2 × 10^8 CFU/mL. Then, 3 × 1 mL of suspension was transferred into a 2-mL reaction tube and mixed with either plectasin, CASPON-plectasin, or PBS buffer to obtain volume conditions. The concentration for plectasin was 4 x MIC, and CASPON-plectasin was of the same molar quantity as plectasin. After incubation, the bacterial suspensions were washed with PBS three times, using mild centrifugation conditions for each wash cycle (3,000 g, 15 minutes) to avoid cell damage. Prior to sample preparation, mesh copper grids were pretreated with pioloform film and a thin carbon layer. Additionally, the grids were plasma-cleaned for 10 seconds. All samples were prepared by a negative staining procedure. Sample droplets were placed on copper grids for 10 minutes. Afterward, the grids were placed on a 2% glutaraldehyde in 0.1 M phosphate buffer, washed three times with HQ water, and stained with 1% uranyl acetate for 30 seconds. Grids were then analyzed in the TEM FEI Tecnai G^2 200 kV (Thermo Fisher Scientific, Waltham, MA) under high vacuum with 160 kV. For quantification, each condition (untreated, plectasin-treated, and CASPON-plectasin-treated) and each bacterial strain (the four mentioned above) were analyzed using two independent grid squares per biological duplicate, thus yielding a total of four grid squares per condition. Grid squares comprising ≥11 cells were selected for analysis, and the cells were counted and categorized as “no visible damage” or “visible damage”. Percentages and standard deviations were subsequently calculated for each condition. An example of counting the cells can be found in the supplementary material (Fig. S2).

Listeria monocytogenes = assay: TEM quantification of cells with visible damage
Method: as §1

Staphylococcus aureus = assay: TEM quantification of cells with visible damage
Method: as §1

CC[C@H](C)[C@@H]1NC(=O)[C@H](CO)NC(=O)[C@H](CCCCN)NC(=O)[C@@H]2CSSC[C@@H](C(=O)N[C@@H](Cc3ccc(O)cc3)C(=O)O)NC(=O)[C@H](CCCCN)NC(=O)[C@@H]3CSSC[C@H](NC(=O)[C@H](CCC(N)=O)NC(=O)[C@H](CCSC)NC(=O)[C@H](CC(=O)O)NC(=O)[C@H](CC(=O)O)NC(=O)[C@H](CCC(=O)O)NC(=O)[C@H](CC(=O)O)NC(=O)[C@H](Cc4c[nH]c5ccccc45)NC(=O)[C@@H]4CCCN4C(=O)CNC(=O)[C@H](CC(N)=O)NC(=O)[C@@H](NC(=O)CNC(=O)[C@H](Cc4ccccc4)NC(=O)CN)CSSC[C@H](NC(=O)[C@H](Cc4ccc(O)cc4)NC(=O)CNC(=O)CNC(=O)[C@H](CCCCN)NC(=O)[C@H](Cc4ccc(O)cc4)NC(=O)CNC(=O)[C@H](CCCCN)NC1=O)C(=O)N[C@@H](C)C(=O)N[C@@H](CCCCN)C(=O)NCC(=O)NCC(=O)N[C@@H](Cc1ccccc1)C(=O)N[C@@H](C(C)C)C(=O)N3)C(=O)N[C@@H](Cc1c[nH]cn1)C(=O)N[C@@H](CC(N)=O)C(=O)N[C@@H](Cc1c[nH]cn1)C(=O)N2 [Plectasin, plectasin]
growth inhibition (no MIC could be determined) [1]: no growth decline | No visible damage (%) (Streptococcus pneumoniae; Grid Square 1): 11.11% | Visible damage (%) (Streptococcus pneumoniae; Grid Square 1): 88.89% | No visible damage (%) (Streptococcus pneumoniae; Grid Square 2): 16.22% | Visible damage (%) (Streptococcus pneumoniae; Grid Square 2): 83.78% | No visible damage (%) (Streptococcus pneumoniae; Grid Square 3): 13.33% | Visible damage (%) (Streptococcus pneumoniae; Grid Square 3): 86.67% | No visible damage (%) (Streptococcus pneumoniae; Grid Square 4): 8.33% | Visible damage (%) (Streptococcus pneumoniae; Grid Square 4): 91.67% | cells with visible damage (Streptococcus pneumoniae; negative staining, plectasin 4 x MIC, CASPON-plectasin same molar quantity, mean ± SD of four grid squares (two biological replicates), untreated 15.20, SD): 87.75% ± 2.90% | cells with no visible damage (Streptococcus pneumoniae; negative staining, plectasin 4 x MIC, CASPON-plectasin same molar quantity, mean ± SD of four grid squares, untreated 84.80% ± 3.71%): 12.25% | No visible damage (%) (Listeria monocytogenes; Grid Square 1): 9.09% | Visible damage (%) (Listeria monocytogenes; Grid Square 1): 90.91% | No visible damage (%) (Listeria monocytogenes; Grid Square 2): 34.48% | Visible damage (%) (Listeria monocytogenes; Grid Square 2): 65.52% | No visible damage (%) (Listeria monocytogenes; Grid Square 3): 18.18% | Visible damage (%) (Listeria monocytogenes; Grid Square 3): 81.82% | No visible damage (%) (Listeria monocytogenes; Grid Square 4): 18.75% | Visible damage (%) (Listeria monocytogenes; Grid Square 4): 81.25% | cells with visible damage (Listeria monocytogenes; negative staining, plectasin 4 x MIC, CASPON-plectasin same molar quantity, mean ± SD of four grid squares (two biological replicates), untreated 6.97, SD): 79.87% ± 9.13% | cells with no visible damage (Listeria monocytogenes; negative staining, plectasin 4 x MIC, CASPON-plectasin same molar quantity, mean ± SD of four grid squares, untreated 93.03% ± 4.81%): 20.13% | No visible damage (%) (Staphylococcus aureus; Grid Square 1): 7.69% | Visible damage (%) (Staphylococcus aureus; Grid Square 1): 92.31% | No visible damage (%) (Staphylococcus aureus; Grid Square 2): 16.67% | Visible damage (%) (Staphylococcus aureus; Grid Square 2): 83.33% | No visible damage (%) (Staphylococcus aureus; Grid Square 3): 5.88% | Visible damage (%) (Staphylococcus aureus; Grid Square 3): 94.12% | No visible damage (%) (Staphylococcus aureus; Grid Square 4): 11.76% | Visible damage (%) (Staphylococcus aureus; Grid Square 4): 88.24% | cells with visible damage (Staphylococcus aureus; negative staining, plectasin 4 x MIC, CASPON-plectasin same molar quantity, mean ± SD of four grid squares (two biological replicates), untreated 10.10, SD): 89.50% ± 4.15% | cells with no visible damage (Staphylococcus aureus; negative staining, plectasin 4 x MIC, CASPON-plectasin same molar quantity, mean ± SD of four grid squares, untreated 89.90% ± 4.88%): 10.50%
